# Results published in paper PMC2584044, “Key biosynthetic gene subfamily recruited for pheromone production prior to the extensive radiation of Lepidoptera” (BMC Evolutionary Biology, 2008).
# Target: T1, Lca-QPAQ (Lca-Z9-QPAQ) (Lampronia capitella, UniProt B6CBS2)
# T1 construct: full-length ORF, 353 residues, YEpOLEX in S. cerevisiae ole1
# T1 sequence (B6CBS2 1-352): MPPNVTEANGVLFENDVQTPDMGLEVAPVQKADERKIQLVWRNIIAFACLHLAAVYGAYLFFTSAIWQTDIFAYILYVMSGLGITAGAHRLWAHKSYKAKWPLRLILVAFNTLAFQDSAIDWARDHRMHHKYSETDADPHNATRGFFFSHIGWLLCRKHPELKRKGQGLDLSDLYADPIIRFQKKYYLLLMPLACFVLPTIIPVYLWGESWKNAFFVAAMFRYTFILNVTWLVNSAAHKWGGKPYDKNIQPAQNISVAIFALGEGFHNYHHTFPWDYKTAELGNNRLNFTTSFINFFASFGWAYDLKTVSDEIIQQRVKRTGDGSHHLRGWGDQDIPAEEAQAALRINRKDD
# Assay: product GC-MS with DMDS adducts, yeast ole1 complementation
# Assay type: cell-based
# Details: endogenous yeast acyl (as acyl-CoA); 30 °C; product (Z)-9-hexadecenoic acid
smiles,measurement,value
CCCCCCCCCCCCCCCC(=O)O [palmitic acid],"product GC-MS with DMDS adducts, yeast ole1 complementation",Lca-QPAQ and Hass-KPSE are encoding Z9-desaturases displaying a substrate preference for palmitic acid
